Patent US20230312752A1 (Brown University, priority 2021, published 2023)

B1: FRG: murine monoclonal anti-CHI3L1 antibody raised against amino acid 223-234 of human CHI3L1; heavy chain SEQ ID NO: 13, light chain SEQ ID NO: 14 (antibody, V domains shown)
VH: QIQLVQSGPELKKPGETVKISCKASGYTFTNYGMNWVKQAPGKGLKWMGWINTYTGEPTYADDFKGRFAFSLETSASTAYLQINNLRNEDMSTYFCARLGYGKFYVMDYWGQGTSVTVSS
VL: DVVMTQTPLSLPVSLGDQASISCRSSQSLVHSNGNTYLHWYLQKPGQSPKLLIYKVSNRFSGVPDRFSGSGSGTDFTLKISRVEAEDLGVYFCSQSTHVTWTFGGGTKLEIK

Key:
Format in all cases: cell-based, SARS-CoV-2
[1] = tested on: pseudovirus with Delta S protein mutations
[2] = tested on: pseudovirus with alpha, beta or gamma S protein mutations
[3] = tested on: pseudoviruses with omicron S protein mutations
[4] = tested on: pseudovirus with S protein D614G, E484K, UK, SA, BZ variants

Row | Molecule | CHI3L1-stimulated pseudovirus uptake [1] | pseudovirus uptake when exogenous CHI3L1 was not administered [1] | rCHI3L1 stimulatory effects on pseudovirus uptake [2] | uptake of pseudovirus in cells treated with and without rCHI3L1 [2] | epithelial cell uptake of pseudoviruses [3] | uptake of pseudovirus [1] | cellular integration of Spike proteins [4] | uptake of pseudoviruses [3] | uptake of pseudoviruses in cells treated with and without rCHI3L1 [2]
1 | C[C@H]1O[C@H](O[C@H]2[C@H](O)[C@@H](O)[C@@H](O)[C@H](O)[C@@H]2O)[C@@H](N)C[C@@H]1NC(=N)C(=O)O [Kasugamycin, 2-amino-2-[(2R,3S,5S,6R)-5-amino-2-methyl-6-[(2R,3S,5S,6S)-2,3,4,5,6-pentahydroxycyclohexyl]oxyoxan-3-yl]iminoacetic acid] | abrogated | diminished | markedly decreased | markedly diminished | inhibited | – | – | – | –
2 | rhCHI3L1: recombinant human CHI3L1 (chitinase 3 like 1) protein, from R&D Inc. or generated at Brown University | – | – | – | – | – | potent stimulator | stimulated | potent stimulator | –
3 | B1 | abrogated | diminished | – | markedly diminished | inhibited | – | – | – | markedly diminished
